Reference: PMC6661955, “Indole bearing thiadiazole analogs: synthesis, β-glucuronidase inhibition and molecular docking study” (BMC Chemistry, 2019)

Target: T1, β-glucuronidase (Bos taurus, UniProt A3KMY8)
T1 sequence (A3KMY8 24-652): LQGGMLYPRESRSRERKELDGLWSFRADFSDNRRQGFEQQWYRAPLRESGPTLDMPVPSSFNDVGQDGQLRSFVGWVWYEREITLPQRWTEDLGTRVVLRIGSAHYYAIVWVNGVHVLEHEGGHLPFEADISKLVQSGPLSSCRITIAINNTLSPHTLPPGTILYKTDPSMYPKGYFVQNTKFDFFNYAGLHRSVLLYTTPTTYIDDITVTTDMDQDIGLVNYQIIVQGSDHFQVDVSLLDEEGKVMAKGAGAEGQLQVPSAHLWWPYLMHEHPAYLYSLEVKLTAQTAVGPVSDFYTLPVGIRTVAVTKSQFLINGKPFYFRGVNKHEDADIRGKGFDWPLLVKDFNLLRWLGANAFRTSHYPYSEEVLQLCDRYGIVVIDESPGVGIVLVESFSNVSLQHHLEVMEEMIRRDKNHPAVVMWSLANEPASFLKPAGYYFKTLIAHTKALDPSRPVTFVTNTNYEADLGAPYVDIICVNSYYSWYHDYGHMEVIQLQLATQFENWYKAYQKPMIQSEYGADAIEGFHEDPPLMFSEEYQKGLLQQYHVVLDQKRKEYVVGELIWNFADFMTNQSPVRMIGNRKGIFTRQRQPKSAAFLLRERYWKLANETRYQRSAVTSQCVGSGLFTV
Assay: β-glucuronidase inhibition
Assay type: biochemical
Conditions: grouping in words

activity group according to inhibitory IC50 values | Compound
moderate active | Oc1cccc(-c2nnc(-c3ccc4[nH]ccc4c3)s2)c1 [Compound 4, 3-(5-(indol-5-yl)-1,3,4-thiadiazol-2-yl)phenol]
low active | Cc1ccccc1-c1nnc(-c2ccc3[nH]ccc3c2)s1 [Compound 2, 2-(1H-indol-5-yl)-5-(o-tolyl)-1,3,4-thiadiazole]
moderate active | Oc1ccc(-c2nnc(-c3ccc4[nH]ccc4c3)s2)cc1 [Compound 9, 4-(5-(1H-indol-5-yl)-1,3,4-thiadiazol-2-yl)phenol]
moderate active | Fc1ccc(-c2nnc(-c3ccc4[nH]ccc4c3)s2)cc1 [Compound 20, 2-(4-fluorophenyl)-5-(1H-indol-5-yl)-1,3,4-thiadiazole]
low active | Cc1ccc(-c2nnc(-c3ccc4[nH]ccc4c3)s2)cc1 [Compound 1, 2-(1H-indol-5-yl)-5-(p-tolyl)-1,3,4-thiadiazole]

Compound | activity group according to inhibitory IC50 values
Oc1ccc(-c2nnc(-c3ccc4[nH]ccc4c3)s2)cc1O [Compound 7, 4-(5-(1H-indol-5-yl)-1,3,4-thiadiazol-2-yl)benzene-1,2-diol] | highly active
Oc1ccccc1-c1nnc(-c2ccc3[nH]ccc3c2)s1 [Compound 3, 2-(5-(1H-indol-5-yl)-1,3,4-thiadiazol-2-yl)phenol] | highly active
Oc1cccc(-c2nnc(-c3ccc4[nH]ccc4c3)s2)c1O [Compound 6, 3-(5-(1H-indol-5-yl)-1,3,4-thiadiazol-2-yl)benzene-1,2-diol] | highly active
